What was measured:
[1] = system: eLL2 KRAS^WT/G12C NRAS^−/− A2 model; assay: Tumor cell growth in vivo, murine syngeneic eLL2 KRAS^WT/G12C NRAS^−/− A2 model; design: species or system C57BL/6J mice; settings: on treatment; RMC-4550 30 mg/kg po qd
Procedure: Methods: Effects of Compound A and combination therapy with Compound B and/or RMC-4550 (a SHP2 inhibitor) on tumor cell growth in vivo were evaluated in the murine syngeneic eLL2 KRAS^WT/G12C NRAS^−/− A2 model using female C57BL/6J mice (6-8 weeks old). Mice were implanted with tumor cells (3×10^6 cells/mouse) in DMEM medium without supplements subcutaneously in the upper right flank. Once tumors reached an average size of ˜130 mm^3, mice were randomized to treatment groups to start the administration of test articles or vehicle. Compound A was administered by oral gavage once daily (po qd) at 200 mg/kg, compound B was administered by oral gavage once daily (po qd) at 25 mg/kg and RMC-4550 was administered by oral gavage once daily (po qd) at 30 mg/kg. In the dual combinations the compounds were administered at the same dose as the monotherapies qd. In the triple combination Compound A was dosed at 200 mg/kg po qd, Compound B was dosed at 50 mg/kg po q2d and RMC-4550 was dosed at 20 mg/kg po qd. The administration of Compound A, Compound B and RMC-4550 was ceased after 60 days of treatment in the monotherapy and combination groups. Body weight and tumor volume (using calipers) was measured twice weekly until study endpoints.

[2] = system: eLL2 KRAS^WT/G12C NRAS^−/− A2 tumors; assay: Tumor immune profile by flow cytometry in response to therapy; type: in vivo, murine; settings: 4 days of treatment, tumors collected 24 hours post last dose, 3 animals/group
Procedure: Methods: The tumor immune profile of the murine syngeneic eLL2 KRAS^WT/G12C NRAS^−/− A2 tumors (3 animals/group) was evaluated in response to therapy by flow cytometry. The mono- and combination therapies were administered for 4 days at the concentrations described in FIG. 1 A-C. 24 hours post last dose the tumors were collected, tumor tissue was minced, processed with the Dri Tumor & Tissue Dissociation Reagent from BD Biosciences, and homogenized with the gentleMACS™ Dissociator. The cell suspension was incubated at 4° C. for 30 minutes with Mouse BD Fc Block (Clone 2.4G2 from BD Pharmingen), 10 minutes with Blue Dead Cell Stain Kit (from Invitrogen) and 30 min in cell staining buffer. […]

For `Cc1nc(N2CCC3(CC2)CO[C@@H](C)[C@H]3N)c(CO)nc1-c1cccc(Cl)c1Cl` [RMC-4550], the “effect on tumor growth (in words)” value [1] was “tumor growth inhibition” and the “Ly6C+ myeloid derived suppressor cells in tumor” value [2] was “only a slight decrease”.

From patent publication US20260144799A1, “COMPOSITION COMPRISING A FIRST RAS INHIBITOR, SECOND RAS INHIBITOR AND A SHP2 INHIBITOR FOR USE IN THE TREATMENT OF CANCER” (Revolution Medicines, Inc., priority 2022, published 2026)
